Measured values: ChEMBL document CHEMBL3853306, “Antidepressant-like effects and mechanisms of flavonoids and related analogues” (Eur J Med Chem, 2016)
Converted amounts (≈) assume the structure as drawn.

Legend:
[1] = Inhibition of MAO in mouse brain mitochondrial fraction using kynuramine as substrate assessed as formation of 4-hydroxyquinoline by fluorescence spectrometric method; assay type: tissue-based
[2] = Antidepressant- like activity in mouse assessed as duration of immobility time at 10 mg/kg, ip by forced swimming test (reference value: 141.5 +/- 10.9 secs); assay type: functional, organism-based
[3] = Antidepressant- like activity in mouse assessed as duration of immobility time at 10 mg/kg, ip by tail suspension test (reference value: 130.5 +/- 9.6 secs); assay type: functional, organism-based
[4] = Antidepressant- like activity in Balb/c mouse assessed as immobility time at 10 mg/kg, ip administered 30 mins prior to testing by forced swimming test (reference value: 123.3 +/- 10.7 secs); assay type: functional, organism-based
[5] = Antidepressant- like activity in Balb/c mouse assessed as immobility time at 10 mg/kg, ip administered 30 mins prior to testing by tail suspension test (reference value: 130.5 +/- 9.6 secs); assay type: functional, organism-based
[6] = Antidepressant activity in albino mouse assessed as immobility time at 10 mg/kg, ip administered 30 mins prior to testing by forced swimming test (reference value: 141 +/- 14.2 secs); assay type: functional, organism-based
[7] = system: Mus musculus; test: In vivo inhibition of MAOA in ICR mouse brain at 20 mg/kg administered via oral gavage using kynuramine dihydrobromide as substrate preincubated for 15 mins followed by substrate addition measured after 30 mins in presence of MAOB inhibitor deprenyl by fluorescence spectrometric method; assay type: functional
[8] = Antidepressant- like activity in mouse assessed as decrease in immobility time at 30 mg/kg, po by forced swimming test relative to control; assay type: functional, organism-based; design: scale not given: the % may be the effect or the level left
[9] = Antidepressant- like activity in mouse assessed as decrease in immobility time at 30 mg/kg, po by tail suspension test relative to control; assay type: functional, organism-based; design: scale not given: the % may be the effect or the level left
[10] = Antidepressant activity in albino mouse assessed as decrease in immobility time at 10 mg/kg, ip administered 30 mins prior to testing by forced swimming test relative to control; assay type: functional, organism-based; design: scale not given: the % may be the effect or the level left
[11] = Antidepressant- like activity in Balb/c mouse assessed as immobility time at 1 mg/kg, ip administered 30 mins prior to testing by forced swimming test (reference value: 123.3 +/- 10.7 secs); assay type: functional, organism-based
[12] = Antidepressant- like activity in Balb/c mouse assessed as immobility time at 5 mg/kg, ip administered 30 mins prior to testing by forced swimming test (reference value: 123.3 +/- 10.7 secs); assay type: functional, organism-based
[13] = Antidepressant- like activity in Balb/c mouse assessed as immobility time at 1 mg/kg, ip administered 30 mins prior to testing by tail suspension test (reference value: 130.5 +/- 9.6 secs); assay type: functional, organism-based
[14] = Antidepressant- like activity in Balb/c mouse assessed as immobility time at 5 mg/kg, ip administered 30 mins prior to testing by tail suspension test (reference value: 130.5 +/- 9.6 secs); assay type: functional, organism-based

SMILES: O=C1c2c(O)cc(O)cc2O[C@H](c2ccc(O)cc2)[C@H]1O [DIHYDROKAEMPFEROL]
- IC50 [1]: 154.7 µg/mL (≈ 537 µM)

SMILES: CNCCC(Oc1ccc(C(F)(F)F)cc1)c1ccccc1 (centres undefined)
- TIME [2]: 0.0174 h
- TIME [3]: 0.0112 h
- TIME [4]: 0.0229 h
- TIME [5]: 0.021 h
- TIME [6]: 0.0195 h

SMILES: O=c1c(O)c(-c2ccc(O)c(O)c2)oc2cc(O)ccc12 [FISETIN]
- inhibition in vivo at 20 mg/kg [7]: 14.7%

SMILES: COc1ccc(/C=C/C(=O)c2ccc(OCC=C(C)C)cc2O)cc1
- TIME [2]: 0.0112 h
- TIME [3]: 0.0141 h
- Activity [8]: 71.4%
- Activity [9]: 61%

SMILES: CC(C)=CCOc1ccc(C(=O)/C=C/c2cccc(Br)c2)c(O)c1
- TIME [2]: 0.0102 h
- TIME [3]: 0.0118 h
- Activity [8]: 74.1%
- Activity [9]: 67.6%

SMILES: O=C1c2c(O)cc(O)cc2O[C@H](c2ccc(O)c(O)c2)[C@H]1O [(+)-TAXIFOLIN]
- IC50 [1]: 153.1 µg/mL (≈ 503 µM)

SMILES: COc1cc(C2CC(=O)c3ccc(O)cc3O2)ccc1O (centres undefined)
- TIME [6]: 0.0256 h
- Activity [10]: 34.6%

SMILES: CC(C)=CCOc1ccc(C(=O)/C=C/c2c(Cl)cccc2Cl)c(O)c1
- TIME [2]: 0.0116 h
- TIME [3]: 0.0135 h

SMILES: O=C(O)[C@H]1O[C@@H](Oc2cc(O)c3c(=O)cc(-c4ccc(O)cc4)oc3c2)[C@H](O)[C@@H](O)[C@@H]1O
- IC50 [1]: 81.7 µg/mL (≈ 183 µM)

SMILES: O=c1cc(-c2ccc(O)c(O)c2)oc2cc(O[C@@H]3O[C@H](CO)[C@@H](O)[C@H](O)[C@H]3O)cc(O)c12 [GALUTEOLIN]
- IC50 [1]: 118.6 µg/mL (≈ 265 µM)

SMILES: O=C1CC(c2ccc(Cl)cc2Cl)Oc2cc(O)ccc21 (centres undefined)
- Activity [10]: 30.4%

SMILES: CC(C)=CCOc1ccc(C(=O)/C=C/c2ccc3ccccc3c2)c(O)c1
- TIME [11]: 0.0254 h
- TIME [12]: 0.022 h
- TIME [4]: 0.0257 h
- TIME [13]: 0.0295 h
- TIME [14]: 0.0217 h
- TIME [5]: 0.0241 h
